Measurements reported in ChEMBL document CHEMBL5344475, “Indole-containing pharmaceuticals: targets, pharmacological activities, and SAR studies” (RSC Med Chem, 2024).

What was measured:
[1] = Tmax in human; format: ADME
[2] = Half life in human; format: ADME
[3] = Terminal half life in iv dosed mouse; format: ADME, organism-based; conditions: in vivo, read-out: beta t1/2 (converted)
[4] = Plasma clearance in iv dosed human; conditions: in vivo
[5] = Terminal half life in human at 10 mg/kg, iv; conditions: in vivo, read-out: beta t1/2 (converted)
[6] = Volume of distribution at steady state in human; conditions: in vivo, read-out: Vdss
[7] = Half life in human plasma; format: ADME, cell-free
[8] = Cmax in human at 4 mg, po; format: ADME; design: dose 4 mg, route po; conditions: in vivo
[9] = Tmax in human plasma; format: ADME, cell-free
[10] = Blood clearance in Wistar rat at 0.3 mg/kg, iv; format: ADME, organism-based
[11] = Elimination half life in human at 7.5 to 100 mg; format: ADME; conditions: dose 7.5-100 mg, read-out: beta t1/2 (converted)
[12] = Oral bioavailability in mouse; format: ADME, organism-based; conditions: in vivo
[13] = AUC in ICR mouse; format: ADME; conditions: in vivo
[14] = Plasma protein binding in human assessed as unbound fraction; format: ADME, cell-free
[15] = Inhibition of tyrosine kinase (unknown origin); design: species or system Homo sapiens
[16] = Volume of distribution at steady state in iv dosed human; conditions: in vivo, read-out: Vdss
[17] = molecular target: T1, DNA polymerase alpha catalytic subunit (Homo sapiens, UniProt P09884); test: Inhibition of DNA polymerase alpha (unknown origin)
T1 sequence (P09884 whole entry): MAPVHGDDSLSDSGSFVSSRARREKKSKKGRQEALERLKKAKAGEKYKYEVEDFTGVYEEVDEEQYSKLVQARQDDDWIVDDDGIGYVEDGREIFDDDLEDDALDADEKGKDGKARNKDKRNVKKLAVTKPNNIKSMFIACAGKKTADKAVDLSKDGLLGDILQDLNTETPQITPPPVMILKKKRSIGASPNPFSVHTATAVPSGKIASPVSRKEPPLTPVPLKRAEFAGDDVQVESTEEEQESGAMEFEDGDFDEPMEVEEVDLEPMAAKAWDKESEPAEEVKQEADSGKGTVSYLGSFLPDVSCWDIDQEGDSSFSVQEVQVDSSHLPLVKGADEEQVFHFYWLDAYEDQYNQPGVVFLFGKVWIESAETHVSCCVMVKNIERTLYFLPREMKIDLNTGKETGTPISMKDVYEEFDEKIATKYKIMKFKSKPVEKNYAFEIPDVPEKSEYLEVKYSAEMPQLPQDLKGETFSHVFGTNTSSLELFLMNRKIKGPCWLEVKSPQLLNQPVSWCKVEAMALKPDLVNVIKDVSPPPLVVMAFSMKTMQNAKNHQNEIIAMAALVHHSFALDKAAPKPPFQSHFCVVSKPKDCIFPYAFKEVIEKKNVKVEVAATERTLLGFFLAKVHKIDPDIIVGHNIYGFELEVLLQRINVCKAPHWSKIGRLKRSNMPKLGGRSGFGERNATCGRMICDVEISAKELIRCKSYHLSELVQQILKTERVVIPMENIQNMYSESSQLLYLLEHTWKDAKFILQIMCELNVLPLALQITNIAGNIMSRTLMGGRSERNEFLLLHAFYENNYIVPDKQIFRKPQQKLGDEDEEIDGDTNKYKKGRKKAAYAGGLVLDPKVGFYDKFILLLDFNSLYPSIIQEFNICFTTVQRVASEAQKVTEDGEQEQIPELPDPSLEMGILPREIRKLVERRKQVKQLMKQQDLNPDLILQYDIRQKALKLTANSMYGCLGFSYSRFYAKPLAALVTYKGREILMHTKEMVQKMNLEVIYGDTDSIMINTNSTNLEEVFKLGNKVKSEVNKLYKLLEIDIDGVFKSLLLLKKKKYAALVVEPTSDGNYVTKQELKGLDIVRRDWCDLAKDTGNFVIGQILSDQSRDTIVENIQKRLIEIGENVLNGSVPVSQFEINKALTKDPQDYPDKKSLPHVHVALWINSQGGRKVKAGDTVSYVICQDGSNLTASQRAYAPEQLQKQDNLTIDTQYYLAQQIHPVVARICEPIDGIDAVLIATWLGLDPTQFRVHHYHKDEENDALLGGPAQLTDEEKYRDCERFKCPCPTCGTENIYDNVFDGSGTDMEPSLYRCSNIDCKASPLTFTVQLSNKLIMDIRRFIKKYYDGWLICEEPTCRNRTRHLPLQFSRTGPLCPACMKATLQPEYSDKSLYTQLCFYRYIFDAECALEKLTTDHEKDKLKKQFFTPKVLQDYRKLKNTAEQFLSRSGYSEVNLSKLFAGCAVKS

[18] = Terminal half life in human; format: ADME; conditions: read-out: beta t1/2 (converted)
[19] = Cmax in human plasma; format: ADME, cell-free
[20] = Plasma clearance in iv dosed C57BL/6J mouse; format: ADME, organism-based
[21] = Volume of distribution in Wistar rat; format: ADME; conditions: in vivo
[22] = AUC in Sprague-Dawley rat at 10 mg/kg, iv by LC-MS/MS analysis; format: ADME, organism-based; design: dose 10 mg/kg, route iv; conditions: in vivo
[23] = Apparent volume of distribution in Sprague-Dawley rat at 1 mg/kg, iv; format: ADME, organism-based; conditions: in vivo
[24] = Effective half life in human; conditions: in vivo, read-out: t1/2eff (converted)
[25] = Volume of distribution in human at 2.5 mg; format: ADME
[26] = molecular target: Prostaglandin G/H synthase 1 (Homo sapiens, UniProt P23219); test: Inhibition of COX1 (unknown origin)
[27] = molecular target: T2, Prostaglandin G/H synthase 2 (Homo sapiens, UniProt P35354); test: Inhibition of COX-2 (unknown origin) using arachidonic acid as substrate preincubated for 15 mins followed by substrate addition by colorimetric assay
T2 sequence (P35354 whole entry): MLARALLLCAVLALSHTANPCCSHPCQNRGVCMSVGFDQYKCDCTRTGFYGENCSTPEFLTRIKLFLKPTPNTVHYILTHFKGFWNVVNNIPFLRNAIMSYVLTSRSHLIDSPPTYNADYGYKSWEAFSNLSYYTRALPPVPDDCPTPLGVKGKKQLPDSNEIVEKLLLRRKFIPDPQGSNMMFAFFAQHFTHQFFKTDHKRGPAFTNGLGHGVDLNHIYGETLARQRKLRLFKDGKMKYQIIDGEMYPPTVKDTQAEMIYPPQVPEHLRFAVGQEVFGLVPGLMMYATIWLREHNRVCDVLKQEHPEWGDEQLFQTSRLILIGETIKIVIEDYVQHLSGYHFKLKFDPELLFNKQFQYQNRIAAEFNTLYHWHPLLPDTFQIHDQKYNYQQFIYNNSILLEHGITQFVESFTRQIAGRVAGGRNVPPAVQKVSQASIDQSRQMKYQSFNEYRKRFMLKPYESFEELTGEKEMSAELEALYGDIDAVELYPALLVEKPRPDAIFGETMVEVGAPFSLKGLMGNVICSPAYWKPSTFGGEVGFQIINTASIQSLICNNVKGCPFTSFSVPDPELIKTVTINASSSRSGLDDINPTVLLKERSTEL

[28] = Half life of compound in PBS buffer; format: physicochemical
[29] = Apparent oral clearance in human at 100 mg, po by LC-MS/MS analysis; format: ADME, organism-based; conditions: in vivo
[30] = molecular target: D(1A) dopamine receptor (Homo sapiens, UniProt P21728); test: Binding affinity to dopamine D1 receptor (unknown origin) assessed as inhibition constant
[31] = molecular target: Dopamine receptor; test: Inhibition of dopamine receptor (unknown origin); format: protein assay, Homo sapiens
[32] = Apparent oral renal clearance in human; format: ADME; conditions: read-out: CL(app)
[33] = molecular target: Beta-2 adrenergic receptor (Homo sapiens, UniProt P07550); test: Binding affinity to human beta 2 adrenergic receptor assessed as inhibition constant
[34] = Half life in human; conditions: in vivo
[35] = Binding affinity to MT1 receptor (unknown origin) assessed as inhibition constant; design: species or system Homo sapiens
[36] = Apparent oral clearance in human at 1 mg, po by LC-MS/MS analysis; format: ADME, organism-based; conditions: in vivo

Beta-2 adrenergic receptor, sequence (P07550 whole entry): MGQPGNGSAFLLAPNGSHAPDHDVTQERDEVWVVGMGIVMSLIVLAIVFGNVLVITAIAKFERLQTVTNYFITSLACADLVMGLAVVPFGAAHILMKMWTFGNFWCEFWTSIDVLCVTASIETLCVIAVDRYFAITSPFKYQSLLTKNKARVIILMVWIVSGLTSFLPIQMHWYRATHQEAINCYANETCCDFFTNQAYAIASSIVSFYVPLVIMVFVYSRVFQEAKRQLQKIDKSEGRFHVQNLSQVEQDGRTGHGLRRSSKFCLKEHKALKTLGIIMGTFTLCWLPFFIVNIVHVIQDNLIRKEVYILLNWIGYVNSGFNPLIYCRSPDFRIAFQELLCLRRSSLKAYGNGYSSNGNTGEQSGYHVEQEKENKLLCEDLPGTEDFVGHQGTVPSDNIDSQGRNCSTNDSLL
D(1A) dopamine receptor, sequence (P21728 whole entry): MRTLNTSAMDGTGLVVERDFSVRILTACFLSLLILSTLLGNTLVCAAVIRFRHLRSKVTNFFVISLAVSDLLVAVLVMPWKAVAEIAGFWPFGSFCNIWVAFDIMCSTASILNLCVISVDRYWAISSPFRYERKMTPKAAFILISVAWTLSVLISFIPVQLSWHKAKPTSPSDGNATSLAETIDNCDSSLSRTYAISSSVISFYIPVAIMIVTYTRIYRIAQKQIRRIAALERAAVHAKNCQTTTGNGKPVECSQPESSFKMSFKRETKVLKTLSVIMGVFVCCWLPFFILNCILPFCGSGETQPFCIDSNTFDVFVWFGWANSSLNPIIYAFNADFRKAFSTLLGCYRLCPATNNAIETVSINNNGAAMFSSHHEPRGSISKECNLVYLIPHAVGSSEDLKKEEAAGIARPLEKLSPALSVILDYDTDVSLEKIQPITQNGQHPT
Prostaglandin G/H synthase 1, sequence (P23219 whole entry): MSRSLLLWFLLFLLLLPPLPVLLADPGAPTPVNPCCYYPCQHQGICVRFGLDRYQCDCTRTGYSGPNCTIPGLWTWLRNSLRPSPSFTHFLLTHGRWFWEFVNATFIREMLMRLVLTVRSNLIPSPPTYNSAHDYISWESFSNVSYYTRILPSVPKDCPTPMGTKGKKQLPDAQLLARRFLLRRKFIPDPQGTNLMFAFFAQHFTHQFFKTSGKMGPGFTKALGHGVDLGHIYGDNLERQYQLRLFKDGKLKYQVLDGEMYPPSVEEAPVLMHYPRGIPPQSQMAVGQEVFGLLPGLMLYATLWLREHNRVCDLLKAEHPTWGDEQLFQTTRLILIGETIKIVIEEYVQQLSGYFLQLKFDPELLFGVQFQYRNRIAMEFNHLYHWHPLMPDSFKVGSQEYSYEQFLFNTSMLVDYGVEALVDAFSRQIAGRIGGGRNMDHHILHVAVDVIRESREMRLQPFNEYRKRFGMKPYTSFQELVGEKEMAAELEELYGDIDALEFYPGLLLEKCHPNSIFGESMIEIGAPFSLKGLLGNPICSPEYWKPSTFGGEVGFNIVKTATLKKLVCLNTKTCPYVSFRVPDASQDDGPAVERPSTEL

`CC(C(=O)O)c1ccc2c(c1)[nH]c1ccc(Cl)cc12` (stereo unspecified) [CARPROFEN] showed a Tmax [1] of 1 h and a half-life [2] of 8 h.

With `CCC1=C[C@@H]2CN(C1)Cc1c([nH]c3ccccc13)[C@@](C(=O)OC)(c1cc3c(cc1OC)N(C)[C@H]1[C@@](O)(C(=O)OC)[C@H](OC(C)=O)[C@]4(CC)C=CCN5CC[C@]31[C@@H]54)C2` [VINORELBINE] the half-life [3] was 24.8 h, the clearance [4] was 16.2 mL/min/kg and the half-life [5] was 27.7 h. The Vd [6] was 25.4 L/kg.

Molecule `CCOC(=O)c1c(CSc2ccccc2)n(C)c2cc(Br)c(O)c(CN(C)C)c12` [UMIFENOVIR] has a half-life [7] of 17 h, a Cmax [8] of 0.415 µg/mL and a Tmax [9] of 0.65 h.

`CC[C@]12C=CCN3CC[C@@]4(c5cc([C@@]6(C(=O)OC)C[C@@H]7C[C@@H](C(C)(F)F)CN(Cc8c6[nH]c6ccccc86)C7)c(OC)cc5N(C)[C@H]4[C@@](O)(C(=O)OC)[C@@H]1OC(C)=O)[C@@H]32` [VINFLUNINE] gave a clearance [10] of 667 mL/min.

In the case of `CC(C)C[C@H]1C(=O)N2CCC[C@H]2[C@]2(O)O[C@](NC(=O)[C@@H]3C=C4c5cccc6[nH]c(Br)c(c56)C[C@H]4N(C)C3)(C(C)C)C(=O)N12` [BROMOCRIPTINE], the half-life [11] is reported as 4.85 h, the bioavailability [12] is reported as 90% and the AUC [13] is reported as 2.38 ng·h/mL.

In the case of `C=CC(=O)Nc1cc(Nc2nccc(-c3cn(C)c4ccccc34)n2)c(OC)cc1N(C)CCN(C)C` [OSIMERTINIB], the half-life [7] is reported as 48 h, the Fu [14] is reported as 5% and the IC50 [15] is reported as 27.6 nM. The Vd [16] was 918 L.

For `CNCc1ccc(-c2[nH]c3cc(F)cc4c3c2CCNC4=O)cc1` [RUCAPARIB], the half-life [7] was 17 h and the IC50 [17] was 0.4 nM.

With `COc1ccc2[nH]c3c(c2c1)CCN[C@]31CS[C@@H]2c3c(OC(C)=O)c(C)c4c(c3[C@@H](COC1=O)N1[C@@H]2[C@H]2c3c(cc(C)c(OC)c3O)C[C@@H]([C@@H]1O)N2C)OCO4` the half-life [18] was 51 h, the Cmax [19] was 107 µg/mL and the clearance [20] was 183 mL/min.

For `Cc1c(-c2ccc(O)cc2)n(Cc2ccc(OCCN3CCCCCC3)cc2)c2ccc(O)cc12` [BAZEDOXIFENE], the Vd [21] was 14.7 L/kg, the Tmax [9] was 2.5 h and the AUC [22] was 71 ng·h/mL.

`CC(C)(CO)c1cc2cc(NC(=O)C3(c4ccc5c(c4)OC(F)(F)O5)CC3)c(F)cc2n1C[C@@H](O)CO` [TEZACAFTOR] showed a Vd/F [23] of 82 L and a half-life [24] of 25.1 h.

For `CCN(CC)C(=O)N[C@H]1C=C2c3cccc4[nH]cc(c34)C[C@H]2N(C)C1` [LISURIDE], the Vd [25] was 1.73 L/kg and the half-life [11] was 1.8 h.

With `COc1ccc2c(c1)c(CC(=O)OCC(=O)O)c(C)n2C(=O)c1ccc(Cl)cc1` [ACEMETACIN] the IC50 [26] was 10 nM, the IC50 [27] was 10 nM and the half-life [28] was 4.5 h.

In the case of `COc1cc(C(=O)NS(=O)(=O)c2ccccc2C)ccc1Cc1cn(C)c2ccc(NC(=O)OC3CCCC3)cc12` [ZAFIRLUKAST], the CL/F [29] is reported as 333 mL/min.

`C=CCN1C[C@H](C(=O)N(CCCN(C)C)C(=O)NCC)C[C@@H]2c3cccc4[nH]cc(c34)C[C@H]21` [CABERGOLINE] gave a Ki [30] of 1.4 nM, an EC50 [31] of 13 nM and a CL renal [32] of 80 mL/min.

For `CC(C)[C@@]1(NC(=O)[C@@H]2C[C@@H]3c4cccc5[nH]cc(c45)C[C@H]3N(C)C2)O[C@@]2(O)[C@@H]3CCCN3C(=O)[C@H](Cc3ccccc3)N2C1=O` [DIHYDROERGOCRISTINE], the Ki [33] was 2.4 nM and the half-life [34] was 3.5 h.

Work on `CN1CC(=O)N2[C@H](c3ccc4c(c3)OCO4)c3[nH]c4ccccc4c3C[C@@H]2C1=O` yielded a Ki [35] of 1.2 nM, a CL/F [36] of 41.7 mL/min and a half-life [5] of 17.5 h.
